Results: ChEMBL document CHEMBL4118068 (Eur J Med Chem, 2017)

Tests used:
[1] = biological target: T1, Muscarinic acetylcholine receptor M4 (Homo sapiens, UniProt P08173); experiment: Displacement of [3H]NMS from recombinant human muscarinic M4 receptor expressed in CHOK1 cell membranes after 120 mins by scintillation counting method
T1 sequence (P08173 whole entry): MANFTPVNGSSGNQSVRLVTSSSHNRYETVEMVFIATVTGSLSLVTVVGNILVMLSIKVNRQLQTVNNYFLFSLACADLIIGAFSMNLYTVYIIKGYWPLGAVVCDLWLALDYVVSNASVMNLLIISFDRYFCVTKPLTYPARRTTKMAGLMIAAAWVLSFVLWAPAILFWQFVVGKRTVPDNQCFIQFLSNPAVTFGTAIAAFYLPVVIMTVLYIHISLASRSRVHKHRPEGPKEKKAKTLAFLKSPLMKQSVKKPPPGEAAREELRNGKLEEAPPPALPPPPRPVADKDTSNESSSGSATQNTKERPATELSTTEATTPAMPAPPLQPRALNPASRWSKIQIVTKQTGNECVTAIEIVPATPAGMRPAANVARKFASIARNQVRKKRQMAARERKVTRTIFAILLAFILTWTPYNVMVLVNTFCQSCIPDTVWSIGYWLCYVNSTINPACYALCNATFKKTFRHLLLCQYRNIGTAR

[2] = biological target: T2, Muscarinic acetylcholine receptor M1 (Homo sapiens, UniProt P11229); experiment: Displacement of [3H]NMS from recombinant human muscarinic M1 receptor expressed in CHOK1 cell membranes after 120 mins by scintillation counting method
T2 sequence (P11229 whole entry): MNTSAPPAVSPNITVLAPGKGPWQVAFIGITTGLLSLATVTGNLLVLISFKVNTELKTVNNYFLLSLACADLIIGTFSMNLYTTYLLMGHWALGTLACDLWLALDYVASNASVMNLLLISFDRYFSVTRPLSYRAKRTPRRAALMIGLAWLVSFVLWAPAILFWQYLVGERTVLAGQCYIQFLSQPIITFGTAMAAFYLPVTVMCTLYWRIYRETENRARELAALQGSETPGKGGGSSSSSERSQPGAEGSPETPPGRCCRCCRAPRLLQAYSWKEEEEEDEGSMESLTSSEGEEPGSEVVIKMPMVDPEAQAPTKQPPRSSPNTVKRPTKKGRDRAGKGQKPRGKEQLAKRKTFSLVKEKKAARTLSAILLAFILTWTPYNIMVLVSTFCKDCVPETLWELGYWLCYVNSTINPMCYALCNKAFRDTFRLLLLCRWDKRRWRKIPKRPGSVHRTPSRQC

[3] = biological target: T3, Muscarinic acetylcholine receptor M2 (Homo sapiens, UniProt P08172); experiment: Displacement of [3H]NMS from recombinant human muscarinic M2 receptor expressed in CHOK1 cell membranes after 120 mins by scintillation counting method
T3 sequence (P08172 whole entry): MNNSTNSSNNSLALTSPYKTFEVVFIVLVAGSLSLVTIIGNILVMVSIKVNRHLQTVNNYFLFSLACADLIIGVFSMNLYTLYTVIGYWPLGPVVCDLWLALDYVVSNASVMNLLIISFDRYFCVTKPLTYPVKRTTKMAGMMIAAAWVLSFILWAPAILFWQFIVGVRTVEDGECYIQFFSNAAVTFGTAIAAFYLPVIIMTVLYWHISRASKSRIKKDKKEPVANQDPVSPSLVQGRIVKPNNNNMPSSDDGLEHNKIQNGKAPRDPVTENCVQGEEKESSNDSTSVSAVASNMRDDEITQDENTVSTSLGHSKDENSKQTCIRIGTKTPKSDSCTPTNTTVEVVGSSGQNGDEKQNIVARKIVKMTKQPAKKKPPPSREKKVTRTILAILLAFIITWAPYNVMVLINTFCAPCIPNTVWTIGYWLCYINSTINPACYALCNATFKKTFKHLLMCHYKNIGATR

[4] = biological target: T4, Muscarinic acetylcholine receptor M5 (Homo sapiens, UniProt P08912); experiment: Displacement of [3H]NMS from recombinant human muscarinic M5 receptor expressed in CHOK1 cell membranes after 120 mins by scintillation counting method
T4 sequence (P08912 whole entry): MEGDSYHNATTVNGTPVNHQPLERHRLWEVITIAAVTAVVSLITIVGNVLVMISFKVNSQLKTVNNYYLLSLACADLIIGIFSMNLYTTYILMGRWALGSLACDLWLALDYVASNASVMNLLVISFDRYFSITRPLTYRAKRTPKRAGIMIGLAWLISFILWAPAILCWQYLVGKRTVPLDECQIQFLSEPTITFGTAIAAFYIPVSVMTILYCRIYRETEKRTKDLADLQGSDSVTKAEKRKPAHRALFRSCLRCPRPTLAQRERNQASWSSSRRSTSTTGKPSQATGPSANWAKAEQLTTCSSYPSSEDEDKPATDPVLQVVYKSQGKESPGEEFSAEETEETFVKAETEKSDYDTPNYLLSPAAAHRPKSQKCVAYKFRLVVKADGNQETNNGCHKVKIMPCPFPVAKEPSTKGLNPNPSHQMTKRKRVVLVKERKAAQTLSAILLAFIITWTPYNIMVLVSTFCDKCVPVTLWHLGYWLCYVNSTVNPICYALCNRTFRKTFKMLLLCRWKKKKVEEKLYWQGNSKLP

[5] = biological target: Muscarinic acetylcholine receptor M3 (Homo sapiens, UniProt P20309); experiment: Displacement of [3H]NMS from recombinant human muscarinic M3 receptor expressed in CHOK1 cell membranes after 120 mins by scintillation counting method
Sequence of Muscarinic acetylcholine receptor M3 (P20309 whole entry): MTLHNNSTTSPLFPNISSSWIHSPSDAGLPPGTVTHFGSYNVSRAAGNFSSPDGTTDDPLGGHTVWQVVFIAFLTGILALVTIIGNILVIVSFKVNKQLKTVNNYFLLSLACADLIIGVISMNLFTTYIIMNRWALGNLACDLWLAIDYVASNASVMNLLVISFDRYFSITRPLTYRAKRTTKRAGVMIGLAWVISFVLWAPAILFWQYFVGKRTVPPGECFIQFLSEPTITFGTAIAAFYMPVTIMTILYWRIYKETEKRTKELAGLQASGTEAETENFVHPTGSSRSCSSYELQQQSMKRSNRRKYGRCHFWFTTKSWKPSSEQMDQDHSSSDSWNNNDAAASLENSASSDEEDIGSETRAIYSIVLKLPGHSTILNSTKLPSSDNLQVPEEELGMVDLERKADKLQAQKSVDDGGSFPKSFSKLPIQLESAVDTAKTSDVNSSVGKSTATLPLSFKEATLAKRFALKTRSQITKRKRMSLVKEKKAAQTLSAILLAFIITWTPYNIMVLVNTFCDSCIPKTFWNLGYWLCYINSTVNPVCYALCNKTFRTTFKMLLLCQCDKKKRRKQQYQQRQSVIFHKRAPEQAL

c1ccc(C2(c3ccccc3)COC[C@@H](CO[C@@H]3CN4CCC3CC4)O2)cc1
Ki [1]: 100 nM | Ki [2]: 55 nM | Ki [3]: 61.7 nM | Ki [4]: 112 nM | Ki [5]: 105 nM

c1ccc(C2(c3ccccc3)COC[C@H](CO[C@@H]3CN4CCC3CC4)O2)cc1
Ki [1]: 11.5 nM | Ki [2]: 4.57 nM | Ki [3]: 33.1 nM | Ki [4]: 19.1 nM | Ki [5]: 20 nM

c1ccc(C2(c3ccccc3)COC[C@H](CO[C@H]3CN4CCC3CC4)O2)cc1
Ki [1]: 22.9 nM | Ki [2]: 8.91 nM | Ki [3]: 57.5 nM | Ki [4]: 45.7 nM | Ki [5]: 43.7 nM

c1ccc(C2(c3ccccc3)COC[C@@H](CO[C@H]3CN4CCC3CC4)O2)cc1
Ki [1]: 437 nM | Ki [2]: 162 nM | Ki [3]: 355 nM | Ki [4]: 631 nM | Ki [5]: 617 nM

O=C(O[C@H]1CN2CCC1CC2)N1CCc2ccccc2[C@@H]1c1ccccc1 [SOLIFENACIN]
Ki [1]: 129 nM | Ki [2]: 51.3 nM | Ki [3]: 120 nM | Ki [4]: 43.7 nM | Ki [5]: 13.2 nM
